Counter-ions that a name gives are not always drawn. Like-named read-outs stand apart in the source and are kept apart here.

In experiment [1] the test system is JumpIn-DAT cells. Briefly: Effect of pretreatment alone on impedance, dox-treated JumpIn-DAT cells (xCELLigence). It is filed as cell-based, human. To be noted: 10 µM, 1 h.
Experiment [2] addresses human dopamine transporter (DAT) (Homo sapiens, UniProt Q01959). In words: TRACT assay, DAT inhibition in JumpIn-DAT cells (+dox). To be noted: dox-treated JumpIn-DAT cells, 10 µM inhibitor compared to vehicle-pretreated cells.
The test system of experiment [3] is JumpIn-DAT cells. Briefly: cells. To be noted: Homo sapiens.
For experiment [4], the system named is U2OS-DAT cells. In words: Effect of pretreatment alone on impedance, U2OS-DAT cells (xCELLigence). To be noted: 10 µM, 1 h incubation. In kind it is cell-based, human.
Experiment [5] relates to DAT. The settings on record: cited from earlier work.
The subject of experiment [6] is DAT. To be noted: cited from earlier work. The source holds these as a separate data set.
Experiment [7] concerns U2OS-DAT cells. Briefly: GPCR antagonist experiment, dopamine-induced cell response in U2OS-DAT cells (xCELLigence). In kind it is cell-based, human. The settings on record: 1 µM antagonist 1 h, then 10 µM dopamine. Here is the method:
Impedance was measured overnight every 15 min.

Experiment [8] relates to non-transfected U2OS cells. In words: GPCR antagonist experiment, dopamine-induced response in non-transfected U2OS cells (xCELLigence). It is filed as cell-based, human. The settings on record: 1 µM antagonist 1 h, then 316 nM dopamine. As for the experimental part:
Figure S1. Representative vehicle-corrected xCELLigence traces of GPCR antagonists in three cell lines. (a) Pretreatment of U2OS-DAT cells with 1 µM antagonist for 1 h. (b) […]
vehicle, 1 µM SCH23390 or raclopride for 1 h. ( c) Pretreatment of JumpIn-DAT cells in the (1 picture or pasted object on this page, not shown here)

The test system of experiment [9] is JumpIn-DAT cells. In words: GPCR antagonist experiment, dopamine response in dox-treated JumpIn-DAT cells (xCELLigence). It is filed as cell-based, human. The settings on record: 1 µM antagonist 1 h, then 31.6 µM dopamine.
Experiment [10] deals with T1, DAT (Homo sapiens, UniProt Q01959).
T1 construct: host or cells: U2OS, transient PEI transfection of pcDNA3.1(+)-DAT; whole cells or membranes
T1 sequence (Q01959 whole entry): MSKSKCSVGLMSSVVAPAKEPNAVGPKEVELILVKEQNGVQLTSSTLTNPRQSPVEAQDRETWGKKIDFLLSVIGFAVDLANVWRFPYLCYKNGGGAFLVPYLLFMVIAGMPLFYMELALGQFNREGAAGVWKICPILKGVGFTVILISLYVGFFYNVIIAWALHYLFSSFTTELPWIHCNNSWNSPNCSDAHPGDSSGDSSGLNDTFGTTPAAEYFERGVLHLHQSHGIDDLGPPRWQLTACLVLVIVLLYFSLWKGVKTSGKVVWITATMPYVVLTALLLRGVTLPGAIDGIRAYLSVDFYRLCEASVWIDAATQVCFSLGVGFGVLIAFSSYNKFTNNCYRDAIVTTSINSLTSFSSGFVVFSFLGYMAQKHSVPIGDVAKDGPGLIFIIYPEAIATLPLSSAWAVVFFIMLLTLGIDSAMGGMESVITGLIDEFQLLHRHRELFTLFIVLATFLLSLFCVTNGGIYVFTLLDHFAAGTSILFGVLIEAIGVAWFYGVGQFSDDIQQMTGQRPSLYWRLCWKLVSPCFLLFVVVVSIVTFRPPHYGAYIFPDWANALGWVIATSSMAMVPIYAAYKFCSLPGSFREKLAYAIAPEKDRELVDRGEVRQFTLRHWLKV
In words: [3H]WIN35,428 saturation binding assay.

human dopamine transporter (DAT), sequence (Q01959 whole entry): as above

For the compound `COC(=O)[C@H]1[C@@H](OC(=O)c2ccccc2)C[C@@H]2CC[C@H]1N2C.Cl` [Cocaine, Cocaine hydrochloride], the “effect of pretreatment on its own on impedance” value in [1] is on record as “did not substantially affect impedance over time”. In addition, the “enhancement of the apparent potency of dopamine by DAT inhibitor” value in [2] is “threefold”.

Regarding `NCCc1ccc(O)c(O)c1` [Dopamine, dopamine hydrochloride], the EC50 is 7.94 µM in [3] (0.5 h, read-out: pEC50 ± SEM (apparent potency of dopamine), JumpIn-DAT –dox (converted), fixed pseudo-Hill slope of 1, net AUC first 30 min); 26 µM in [3] (read-out: EC50 in µM, JumpIn-DAT +dox pretreated 1 h with 10 µM GBR12909, fixed pseudo-Hill slope of 1); 13 µM in experiment [3] (read-out: EC50 in µM, JumpIn-DAT +dox pretreated 1 h with 10 µM cocaine, fixed pseudo-Hill slope of 1); 8 µM in [3] (read-out: EC50 in µM, JumpIn-DAT –dox, fixed pseudo-Hill slope of 1); 50.1 µM in [3] (read-out: pEC50 ± SEM (apparent potency of dopamine), JumpIn-DAT +dox (1 µg/ml), vehicle-pretreated (converted), fixed pseudo-Hill slope of 1); 25.1 µM in experiment [3] (read-out: pEC50 ± SEM (apparent potency of dopamine), JumpIn-DAT +dox pretreated 1 h with 10 µM GBR12909 (converted), fixed pseudo-Hill slope of 1). In addition, the EC50 in experiment [3] (read-out: pEC50 ± SEM (apparent potency of dopamine), JumpIn-DAT +dox pretreated 1 h with 10 µM cocaine (converted), fixed pseudo-Hill slope of 1) is 12.6 µM; in [3] (read-out: pEC50 ± SEM (variable slope), JumpIn-DAT +dox (converted), variable slope model), 31.6 µM; in [3] (read-out: pEC50 ± SEM (variable slope), JumpIn-DAT +dox + 10 µM GBR12909 (converted), variable slope model), 31.6 µM; in experiment [3] (read-out: pEC50 ± SEM (variable slope), JumpIn-DAT +dox + 10 µM cocaine (converted), variable slope model) it was 20 µM.

With `Cl.Cl.Fc1ccc(C(OCCN2CCN(CCCc3ccccc3)CC2)c2ccc(F)cc2)cc1` [GBR12909, GBR12909 dihydrochloride], the “effect of pretreatment itself on impedance” value in experiment [4] is listed as “did not substantially affect impedance”. In addition, the “effect of pretreatment on its own on impedance” value in experiment [1] was “did not substantially affect impedance over time”. Moreover, the “pIC50, MPP+-induced toxicity inhibition” value in [5] was 7.0. Besides, the “affinity for DAT” value in experiment [6] is given as “low nanomolar”. Moreover, the “enhancement of the apparent potency of dopamine by DAT inhibitor” value in [2] was “twofold”.

With `CN1CCc2cc(Cl)c(O)cc2[C@@H](c2ccccc2)C1` [SCH23390, SCH23390 hydrochloride], the “effect on dopamine-induced cell response” value in [7] was “completely abolish”. For the same compound, the “effect on dopamine-induced response” value in [8] was “eliminated the dopamine-induced response”. Moreover, the “effect on dopamine response” value in experiment [9] was “not affected”.

`[3H]CN1[C@H]2CC[C@@H]1[C@@H](C(=O)OC)[C@@H](c1ccc(F)cc1)C2` [[^3H]WIN35,428, [^3H]-2β-carbomethoxy-3β-(4-fluorophenyl)-tropane]: the “Bmax (total amount of binding sites)” value in [10] (U2OS-DAT membranes) amounted to 1.6 ± 0.2 pmol/mg protein. Moreover, in [10] (U2OS-mock membranes), the specific binding entry is on record as “No specific binding”.

Consider `CCN1CCC[C@H]1CNC(=O)c1c(O)c(Cl)cc(Cl)c1OC` [raclopride], for which the “effect on dopamine-induced response” value in experiment [8] is reported as “not”.

Take `COC(=O)[C@@H]1[C@H]2C[C@H]3c4[nH]c5ccccc5c4CCN3C[C@@H]2CC[C@@H]1O` [yohimbine, Yohimbine hydrochloride]: the “effect on dopamine response” value in [9] is reported as “significantly reduced”.

Values taken from PMC7809260 (Scientific Reports, 2021).
